In general, IC50 refers to the concentration needed to halve the response being measured.

From paper PMC5054527, “Mechanism of high affinity inhibition of the human urate transporter URAT1” (Scientific Reports, 2016) come the findings set out here.

Common to all, as to assay: URAT1 uric acid transport activity assay
Format in all cases: cell-based, human/rat

One assay deals with T1, r-h TM7 URAT1 chimera (Rattus norvegicus, UniProt Q3ZAV1, F351C/M354T/Y365F).
T1 construct: expressed in transfected cells; host or cells: HEK-293T
T1 sequence (Q3ZAV1 1-553 F351C/M354T/Y365F): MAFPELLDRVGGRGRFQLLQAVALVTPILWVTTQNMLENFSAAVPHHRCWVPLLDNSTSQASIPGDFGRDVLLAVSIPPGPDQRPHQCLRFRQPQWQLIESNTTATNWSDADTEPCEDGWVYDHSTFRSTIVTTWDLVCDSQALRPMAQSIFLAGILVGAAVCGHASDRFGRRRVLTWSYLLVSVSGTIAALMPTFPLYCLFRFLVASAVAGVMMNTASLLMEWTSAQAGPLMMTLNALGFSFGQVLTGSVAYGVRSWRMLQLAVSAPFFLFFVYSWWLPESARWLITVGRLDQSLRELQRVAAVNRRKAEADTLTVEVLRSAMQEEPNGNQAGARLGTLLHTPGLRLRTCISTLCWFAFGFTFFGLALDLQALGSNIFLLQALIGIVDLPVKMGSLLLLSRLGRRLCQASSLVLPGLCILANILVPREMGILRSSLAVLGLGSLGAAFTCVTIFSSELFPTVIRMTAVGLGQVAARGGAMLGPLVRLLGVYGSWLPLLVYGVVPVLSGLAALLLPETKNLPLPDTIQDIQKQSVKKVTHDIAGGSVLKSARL
An excerpt: (§1) hURAT1 (GenBank BC053348.1) and rURAT1 (NCBI NM_001034943.1) genes were purchased from Origene Technologies, Inc. and subcloned into pCMV6/neo using NotI, creating pCMV6/neo-hURAT1 and pCMV6/neo-rURAT1. Mutants were produced by polymerase chain reaction (PCR) or site-directed mutagenesis using the QuikChange Lightning Multi Site-Directed Mutagenesis Kit (Agilent Technologies). […] Detailed methods are provided in Supplementary Methods, and primers are listed in Supplementary Table 1. […] Residues in rURAT1 and hOAT1 that correspond to the residues in hURAT1 were identified from aligned protein sequences (Supplementary Fig. 1)[50].
(§2) DNA (10 μg) was mixed with 30 μl of DreamFect Gold (Boca Scientific) in 2 ml OptiMem (Life Technologies). After 20 minutes, 18 ml of media containing 2 × 10^7 cells in suspension was added and mixed, and 200 μl per well were plated onto white clear-bottomed poly-D-lysine coated 96-well plates (BD Biosciences). The cells were assayed the following day.
(§3) Compounds were serially diluted into assay buffer and added to the cells for 5 minutes prior to addition of radiolabelled uric acid substrate. URAT1-expressing cells were incubated with 100 μM ^14C-uric acid for 10 minutes. […] Each treatment was measured in triplicate.
(§4) Unlabelled uric acid was prepared at a 20 mM stock just prior to use in a solution containing 20 mM dibasic potassium phosphate and 20 mM potassium hydroxide.
(§5) Nonlinear regression analyses using GraphPad Prism software were used to calculate the potency of URAT1 inhibitors (IC50 values) from log (inhibitor) versus response - variable slope (four parameters) equations. Statistical significance was assessed using Student’s unpaired t-tests.

Another assay addresses T2, r-h TM1-C URAT1 chimera (Rattus norvegicus, UniProt Q3ZAV1, L29M/N35S/P27S/T32C/V31L).
T2 sequence (Q3ZAV1 1-553 P27S/L29M/V31L/T32C/N35S): T1 sequence (Q3ZAV1 1-553 F351C/M354T/Y365F) with P27S, L29M, V31L, T32C, N35S, C351F, T354M, F365Y
Description: as §1, §2, §3, §4, §5

The next assay deals with T3, r-h TM1-N URAT1 chimera (Rattus norvegicus, UniProt Q3ZAV1, A21T/L18V/T26V/V22M/V25M).
T3 sequence (Q3ZAV1 1-553 L18V/A21T/V22M/V25M/T26V): T1 sequence (Q3ZAV1 1-553 F351C/M354T/Y365F) with L18V, A21T, V22M, V25M, T26V, C351F, T354M, F365Y
Description: as §1, §2, §3, §4, §5

Changes are numbered by the printed parent chain. Where two headings read alike, the source gives them in different places.

On to `CCc1oc2ccccc2c1C(=O)c1cc(Br)c(O)c(Br)c1` [benzbromarone], for which the IC50 against r-h TM7 URAT1 chimera came to 5.7 ± 0.25 µM; on r-h TM1-C URAT1 chimera it was 12 ± 0.78 µM; at r-h TM1-N URAT1 chimera it was 16 ± 0.76 µM.
Consider `O=C(O)CSc1nnc(Br)n1-c1ccc(C2CC2)c2ccccc12` [lesinurad, 2-((5-bromo-4-(4-cyclopropylnaphthalen-1-yl)-4H-1,2,4-triazol-3-yl)thio)acetic acid], for which the half-maximal inhibitory concentration (IC50) worked out at 6.9 ± 0.99 µM on r-h TM7 URAT1 chimera (r-h TM7, MES pH 5.5, 100 μM 14C-uric acid, read-out: IC50 (uric acid transport)); 17 ± 2 µM on r-h TM1-C URAT1 chimera (r-h TM1-C, MES pH 5.5, 100 μM 14C-uric acid, read-out: IC50 (uric acid transport)); 40 ± 7 µM at r-h TM1-N URAT1 chimera (r-h TM1-N, MES pH 5.5, 100 μM 14C-uric acid, read-out: IC50 (uric acid transport)).
For the compound `O=C1C(CC[S+]([O-])c2ccccc2)C(=O)N(c2ccccc2)N1c1ccccc1` (stereo not drawn) [sulfinpyrazone], the IC50 at r-h TM7 URAT1 chimera (r-h TM7, HEPES pH 7.3, 100 μM 14C-uric acid, read-out: IC50 (uric acid transport)) was found to be 243 ± 22 µM; on r-h TM1-C URAT1 chimera (r-h TM1-C, HEPES pH 7.3, 100 μM 14C-uric acid, read-out: IC50 (uric acid transport)) it was 25 ± 6.7 µM; on r-h TM1-N URAT1 chimera (r-h TM1-N, HEPES pH 7.3, 100 μM 14C-uric acid, read-out: IC50 (uric acid transport)), 12 ± 2.6 µM.
